Measured values: patent publication US20190071416A1, “COMPOUNDS FOR TREATMENT OF CANCER AND EPIGENETICS” (Agency For Science, Technology and Research, priority 2015, published 2019)
pIC50: −log10 of the molar value.

What follows are compounds tested against T1, SMYD3 (Homo sapiens, UniProt Q9H7B4) (assay: SMYD3 biochemical assay (MTase-Glo, MAP3K2 peptide substrate)). Details: Table 3; MTase assay, MAP3K2 peptide substrate; read-out: IC50.
T1 sequence (Q9H7B4 1-428): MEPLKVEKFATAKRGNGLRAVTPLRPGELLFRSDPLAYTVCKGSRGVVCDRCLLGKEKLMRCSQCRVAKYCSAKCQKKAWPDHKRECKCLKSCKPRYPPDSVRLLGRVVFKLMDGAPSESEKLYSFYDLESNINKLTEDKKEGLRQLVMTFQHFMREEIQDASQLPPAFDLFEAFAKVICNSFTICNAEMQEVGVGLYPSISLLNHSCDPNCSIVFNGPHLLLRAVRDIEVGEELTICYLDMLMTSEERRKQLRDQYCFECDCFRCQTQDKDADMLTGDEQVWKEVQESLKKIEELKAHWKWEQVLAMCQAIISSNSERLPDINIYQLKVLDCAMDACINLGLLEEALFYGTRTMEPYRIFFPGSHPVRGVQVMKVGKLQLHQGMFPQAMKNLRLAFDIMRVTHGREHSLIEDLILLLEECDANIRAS
Description: A SMYD3 enzymatic assay was developed using Promega's Methyltransferase-Glo™ reagents. In the assay, SMYD3 catalyzes the methylation of the MAP3K2 peptide substrate by transferring a methyl group from SAM to MAP3K2 peptide and further converts the SAM to SAH. The SMYD3 methyltransferase activity is measured based on the amount of SAH produced from the reaction through the use of coupling enzymes that convert the SAH to ATP. The MTase-Glo detection solution then catalyzes the formation of light from ATP.
A final concentration of 1.0 μM and 10 μM SAM and MAP3K2 peptide were added and further incubated for 30 min at room temperature before adding the MTase Glo and detection reagent. Reaction signals were detected using microplate readers on luminescent mode (Safire Tecan). The IC50 was determined by non-linear regression, using GraphPad Prism version, 5.03.
For `CCCOC(=O)N1CCN(C(=O)c2ccc3c(Cl)c4c(nc3c2)CC(CN)CC4)[C@@H](C)C1` (stereo partly drawn) [A067, Propyl (3S)-4-(6-(aminomethyl)-9-chloro-5,6,7,8-tetrahydroacridine-3-carbonyl)-3-methylpiperazine-1-carboxylate], the pIC50 was 6.80. Compound `CCCOC(=O)N1CCN(C(=O)c2ccc3c(Cl)c4c(nc3c2)CCC(CN(C)C)C4)CC1` (centres unmarked) [A068, Propyl 4-(9-chloro-7-((dimethylamino)methyl)-5,6,7,8-tetrahydroacridine-3-carbonyl)piperazine-1-carboxylate] has a pIC50 of 5.92. Compound `CCCOC(=O)N1CCN(C(=O)c2ccc3c(Cl)c4c(nc3c2)CCCC4)CC1CC(=O)OC` (centres unmarked) [A069, Propyl 4-(9-chloro-5,6,7,8-tetrahydroacridine-3-carbonyl)-2-(2-methoxy-2-oxoethyl)piperazine-1-carboxylate] has a pIC50 of 5.28. Work on `CCCOC(=O)N1CCN(C(=O)c2ccc3c(Cl)c4c(nc3c2)CCCC4)C(CC(=O)OC)C1` (centres unmarked) [A070, Propyl 4-(9-chloro-5,6,7,8-tetrahydroacridine-3-carbonyl)-3-(2-methoxy-2-oxoethyl)piperazine-1-carboxylate] yielded a pIC50 of 5.59. With `CCCOC(=O)N1CCN(C(=O)c2ccc3c(Cl)c4c(nc3c2)CCCC4)C(CC(=O)N(C)C)C1` (centres unmarked) [A071, Propyl 4-(9-chloro-5,6,7,8-tetrahydroacridine-3-carbonyl)-3-(2-(dimethylamino)-2-oxoethyl)piperazine-1-carboxylate] the pIC50 was 5.38. `CCCOC(=O)N1CCN(C(=O)c2ccc3c(Cl)c4c(nc3c2)CCCC4)C(CC(=O)NC)C1` (centres unmarked) [A072, propyl 4-(9-chloro-5,6,7,8-tetrahydroacridine-3-carbonyl)-3-(2-(methylamino)-2-oxoethyl)piperazine-1-carboxylate] gave a pIC50 of 5.37. For `CCCOC(=O)N1CCN(C(=O)c2ccc3c(Cl)c4c(nc3c2)CC(c2ccccn2)CC4)C[C@@H]1C` (stereo partly drawn) [A073, Propyl (2S)-4-(9-chloro-6-(pyridin-2-yl)-5,6,7,8-tetrahydroacridine-3-carbonyl)-2-methylpiperazine-1-carboxylate], the pIC50 was 6.82. In the case of `CCCOC(=O)N1CCN(C(=O)c2ccc3c(Cl)c4c(nc3c2)CCC(CCN(C)C)C4)CC1` (centres unmarked) [A075, Propyl 4-(9-chloro-7-(2-(dimethylamino)ethyl)-5,6,7,8-tetrahydroacridine-3-carbonyl)piperazine-1-carboxylate], the pIC50 was 6.68. `CCCOC(=O)N1CCN(C(=O)c2ccc3c(Cl)c4c(nc3c2)CC(CCN)CC4)CC1` (centres unmarked) [A076, Propyl 4-(6-(2-aminoethyl)-9-chloro-5,6,7,8-tetrahydroacridine-3-carbonyl)piperazine-1-carboxylate] gave a pIC50 of 6.80. `CCCOC(=O)N1CCN(C(=O)c2ccc3c(Cl)c4c(nc3c2)CC(CC(N)=O)CC4)CC1` (centres unmarked) [A077, Propyl 4-(6-(2-amino-2-oxoethyl)-9-chloro-5,6,7,8-tetrahydroacridine-3-carbonyl)piperazine-1-carboxylate] showed a pIC50 of 5.92. `CCCOC(=O)N1CCN(C(=O)c2ccc3c(Cl)c4c(nc3c2)CCC(CC#N)C4)CC1` (centres unmarked) [A078, Propyl 4-(9-chloro-7-(cyanomethyl)-5,6,7,8-tetrahydroacridine-3-carbonyl)piperazine-1-carboxylate] showed a pIC50 of 6.55. `CCCOC(=O)N1CCN(C(=O)c2ccc3c(Cl)c4c(nc3c2)CCC(CC(N)=O)C4)CC1` (centres unmarked) [A079, Propyl 4-(7-(2-amino-2-oxoethyl)-9-chloro-5,6,7,8-tetrahydroacridine-3-carbonyl)piperazine-1-carboxylate] showed a pIC50 of 6.37. `CCCOC(=O)N1CC2CCCC1CN2C(=O)c1ccc2c(Cl)c3c(nc2c1)CCCC3` (centres unmarked) [A080, Propyl 8-(9-chloro-5,6,7,8-tetrahydroacridine-3-carbonyl)-6,8-diazabicyclo[3.2.2]nonane-6-carboxylate] gave a pIC50 of 6.77. With `CCCOC(=O)N1CCN(C(=O)c2ccc3c(Cl)c4c(nc3c2)CCC(CCN)C4)[C@@H](C)C1` (stereo partly drawn) [A081, Propyl (3S)-4-(7-(2-aminoethyl)-9-chloro-5,6,7,8-tetrahydroacridine-3-carbonyl)-3-methylpiperazine-1-carboxylate] the pIC50 was 6.82.
